In patent US20190119284A1, “ErbB Inhibitors and Uses Thereof” (The Regents of the University of California, priority 2016, published 2019):

Key:
NEK2 = target: T1, NEK2 (Homo sapiens, UniProt P51955); assay: Nanosyn in vitro kinase profiling: NEK2; format: biochemical; conditions: for inhibition at 1 µM: compound at 1 μM
T1 sequence (P51955 1-445): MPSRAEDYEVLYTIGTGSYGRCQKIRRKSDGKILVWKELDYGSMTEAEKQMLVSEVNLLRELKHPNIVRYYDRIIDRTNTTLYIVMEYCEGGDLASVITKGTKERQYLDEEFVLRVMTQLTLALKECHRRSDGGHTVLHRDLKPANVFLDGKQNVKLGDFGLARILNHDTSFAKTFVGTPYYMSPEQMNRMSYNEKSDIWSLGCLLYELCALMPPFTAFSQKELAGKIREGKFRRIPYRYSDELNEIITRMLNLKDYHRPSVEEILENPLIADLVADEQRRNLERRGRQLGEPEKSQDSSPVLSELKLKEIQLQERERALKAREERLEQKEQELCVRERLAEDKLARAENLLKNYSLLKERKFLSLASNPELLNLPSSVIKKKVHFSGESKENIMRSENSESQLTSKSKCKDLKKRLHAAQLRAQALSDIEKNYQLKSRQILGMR
Description: (§1) This was confirmed by in vitro profiling against a panel of kinases, with compound 2 only showing potent inhibition of EGFR and Ab1 (Table 2).
(§2) In vitro Kinome Screen. In vitro profiling of compound 2 at 100 nM was conducted by Nanosyn.

PYK2 = PYK2 (Homo sapiens, UniProt Q14289); assay: Nanosyn in vitro kinase profiling: PYK2; format: biochemical; conditions: for inhibition at 1 µM: compound at 1 μM
Description: as §1, §2

[1] = system: 2YF/3wt + IL-3 Ba/F3 cells; assay: Ba/F3 proliferation assay, 2YF/3wt + IL-3; format: cell-based; conditions: Mus musculus, BaF3; Table 4; ± S.D., n = 3; 48 h Cell Titer Glo
Description: To validate the screen and test the effectiveness of counter-screening with either the same 2YF/3wt Ba/F3 cell line or the parental Ba/F3's in the presence of IL-3 to remove cytotoxic primary hits, we first tested a panel of kinase inhibitors with established mechanisms of action.
Proliferation Assays. For adherent cell lines, cells were plated onto opaque white 96 well plates (Greiner cat #655083) and allowed to adhere overnight. The following day media was changed to fresh media that contained either DMSO or the indicated concentration of drug plus NRG (50 ng/mL final concentration) as indicated. Plates were incubated at 37° C. for 72 h and proliferation was read out using Cell Titer Glo (Promega) according to the manufacturer's protocol. For Ba/F3 cell proliferation, cells, drug dilution, and any necessary growth factors (10 ng/mL IL-3 or 6.25 ng/mL NRG) were combined in a well of a 96 well plate. Plates were incubated at 37° C. for 48 h and proliferation was read out using Cell Titer Glo according to the manufacturer's protocol. For all normalized assays, proliferation was normalized to the DMSO control condition. All graphs were plotted in GraphPad Prism 6 and fit with a non-linear regression of the log(inhibitor) vs response with a variable slope where shown. All graphs are averages (+/−standard deviation) of biological triplicates each performed in technical triplicate unless otherwise noted. If only one biological replicate was performed standard deviations were derived from the technical replicates.

Axl+ Ba/F3 cells = target: T2, Axl+ Ba/F3 cells (Homo sapiens, UniProt P30530); assay: Ba/F3 proliferation assay, Axl+; format: cell-based; conditions: Table 4; ± S.D., n = 3; 48 h Cell Titer Glo; read-out: IC50, Axl
T2 sequence (P30530 1-894): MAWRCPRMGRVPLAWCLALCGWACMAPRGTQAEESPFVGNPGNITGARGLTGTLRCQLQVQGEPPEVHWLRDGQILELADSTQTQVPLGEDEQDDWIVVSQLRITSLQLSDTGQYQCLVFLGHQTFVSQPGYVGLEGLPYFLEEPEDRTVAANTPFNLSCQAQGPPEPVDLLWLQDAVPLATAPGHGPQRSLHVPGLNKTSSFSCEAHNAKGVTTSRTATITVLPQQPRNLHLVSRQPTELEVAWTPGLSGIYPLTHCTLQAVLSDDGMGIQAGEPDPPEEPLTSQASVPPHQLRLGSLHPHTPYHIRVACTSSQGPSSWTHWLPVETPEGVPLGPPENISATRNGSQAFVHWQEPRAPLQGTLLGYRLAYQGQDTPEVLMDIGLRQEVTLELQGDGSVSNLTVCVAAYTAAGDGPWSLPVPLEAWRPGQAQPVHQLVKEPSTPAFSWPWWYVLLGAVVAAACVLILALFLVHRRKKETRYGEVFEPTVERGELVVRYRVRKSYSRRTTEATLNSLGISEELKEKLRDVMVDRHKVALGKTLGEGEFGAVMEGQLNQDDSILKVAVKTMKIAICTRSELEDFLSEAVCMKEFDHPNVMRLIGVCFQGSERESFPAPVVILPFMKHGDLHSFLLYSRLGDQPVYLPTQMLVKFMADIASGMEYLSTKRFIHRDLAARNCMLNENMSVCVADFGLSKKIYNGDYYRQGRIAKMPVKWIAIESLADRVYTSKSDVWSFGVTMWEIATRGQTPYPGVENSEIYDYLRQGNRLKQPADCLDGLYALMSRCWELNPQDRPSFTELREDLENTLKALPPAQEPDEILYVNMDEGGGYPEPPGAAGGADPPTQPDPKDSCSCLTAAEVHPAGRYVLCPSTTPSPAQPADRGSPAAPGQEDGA
Summary of the method: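 Ba/F3 cells transduced with Axl and selected for IL-3-independent growth. Cells combined with drug dilutions, and with IL-3 (10 ng/mL) or NRG (6.25 ng/mL) where needed, for 48 h at 37 °C. CellTiter-Glo read, normalized to DMSO, fitted with variable-slope log(inhibitor) regression.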

SGK1 = target: T3, SGK1 (Homo sapiens, UniProt O00141); assay: Nanosyn in vitro kinase profiling: SGK1; format: biochemical; conditions: for inhibition at 1 µM: compound at 1 μM
T3 sequence (O00141 1-431): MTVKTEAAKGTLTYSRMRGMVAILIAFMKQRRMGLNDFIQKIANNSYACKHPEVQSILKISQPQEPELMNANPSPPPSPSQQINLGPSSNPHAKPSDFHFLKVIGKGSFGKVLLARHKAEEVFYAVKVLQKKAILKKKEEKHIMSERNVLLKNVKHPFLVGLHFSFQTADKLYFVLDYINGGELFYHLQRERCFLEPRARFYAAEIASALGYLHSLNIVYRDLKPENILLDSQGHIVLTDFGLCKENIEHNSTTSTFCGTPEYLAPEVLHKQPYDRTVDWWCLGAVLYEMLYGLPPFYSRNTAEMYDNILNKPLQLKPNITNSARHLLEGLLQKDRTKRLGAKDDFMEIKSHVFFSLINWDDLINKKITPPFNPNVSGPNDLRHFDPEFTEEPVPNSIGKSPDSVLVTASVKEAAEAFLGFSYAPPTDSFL
Description: as §1, §2

PYK2, sequence (Q14289 whole entry, species assumed): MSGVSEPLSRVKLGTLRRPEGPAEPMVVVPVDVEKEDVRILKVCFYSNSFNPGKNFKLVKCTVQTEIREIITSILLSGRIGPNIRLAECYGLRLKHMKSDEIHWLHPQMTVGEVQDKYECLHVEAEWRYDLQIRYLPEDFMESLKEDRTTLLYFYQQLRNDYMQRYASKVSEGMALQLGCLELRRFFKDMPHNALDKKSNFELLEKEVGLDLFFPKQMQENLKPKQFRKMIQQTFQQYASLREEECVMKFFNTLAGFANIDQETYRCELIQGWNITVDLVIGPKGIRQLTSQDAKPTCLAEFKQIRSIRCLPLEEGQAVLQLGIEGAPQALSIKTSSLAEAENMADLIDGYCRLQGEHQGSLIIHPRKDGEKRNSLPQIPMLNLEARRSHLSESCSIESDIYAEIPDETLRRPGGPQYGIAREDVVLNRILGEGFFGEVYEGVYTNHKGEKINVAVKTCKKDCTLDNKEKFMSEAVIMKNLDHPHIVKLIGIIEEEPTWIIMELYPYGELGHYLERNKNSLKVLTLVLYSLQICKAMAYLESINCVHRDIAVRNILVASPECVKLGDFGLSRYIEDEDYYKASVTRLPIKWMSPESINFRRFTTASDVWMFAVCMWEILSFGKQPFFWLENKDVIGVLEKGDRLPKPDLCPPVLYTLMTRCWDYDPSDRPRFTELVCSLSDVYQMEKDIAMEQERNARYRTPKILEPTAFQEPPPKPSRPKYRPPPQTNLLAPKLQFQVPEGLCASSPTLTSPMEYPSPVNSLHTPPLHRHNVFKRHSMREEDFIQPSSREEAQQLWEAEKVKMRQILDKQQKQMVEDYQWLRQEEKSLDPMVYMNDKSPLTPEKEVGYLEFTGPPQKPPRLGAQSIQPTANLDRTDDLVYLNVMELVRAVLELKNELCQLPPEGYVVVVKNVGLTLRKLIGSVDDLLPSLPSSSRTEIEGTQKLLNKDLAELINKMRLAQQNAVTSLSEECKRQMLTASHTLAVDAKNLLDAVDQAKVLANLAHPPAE

inhibition at 1 µM (NEK2) | inhibition at 1 µM (PYK2) | inhibition at 1 µM (SGK1) | inhibition at 0.1 µM (NEK2; compound at 100 nM) | inhibition at 0.1 µM (PYK2; compound at 100 nM) | inhibition at 0.1 µM (SGK1; compound at 100 nM) | Compound | IC50 [1] | GI50 (Axl+ Ba/F3 cells)
-9% | 41% | 31% |  |  |  | COc1ccc(-c2ccoc2)cc1Nc1ncnc2[nH]cc(-c3cc[nH]n3)c12 [compound 3, N-(5-(furan-3-yl)-2-methoxyphenyl)-5-(1H-pyrazol-3-yl)-7H-pyrrolo[2,3-d]pyrimidin-4-amine] | 2.54 ± 0.217 µM | 1.17 ± 0.106 µM
2.98% | 20.2% | 53.4% | 1.53% | 3.81% | 14.4% | COc1ccc(-c2ccco2)cc1Nc1ncnc2[nH]nc(-c3ccco3)c12 [compound 2, 3-(furan-2-yl)-N-(5-(furan-2-yl)-2-methoxyphenyl)-1H-pyrazolo[3,4-d]pyrimidin-4-amine] |  | 
 |  |  |  |  |  | CS(=O)(=O)CCNCc1ccc(-c2ccc3ncnc(Nc4ccc(OCc5cccc(F)c5)c(Cl)c4)c3c2)o1 [lapatinib] | > 3.33 µM | > 3.33 µM
